From patent US4110327A, “2,3 Diketo-piperazinocarbonylamino alkanoic acids and derivatives” (Toyama Chemical Co., Ltd., priority 1974, dated 1978)

Legend:
Proteus mirabilis = experiment: MIC against clinical isolates; type: cell-based; details: clinical isolate, unit assumed
β-lactamase = experiment: Resistant activity against β-lactamase, iodometric assay; type: biochemical, Pseudomonas aeruginosa GN 238; details: relative to Potassium Penicillin G = 100
Description: (3) Resistant activity against β-lactamase, Pseudomonas aergionan GN 238:
The resistant activity of each compound against β-lactamase was measured in the manner described below.
β-Lactamase was prepared from Pseudomonas aeruginosa GN 238. This microorganism was cultured in 100 ml of a medium containing 2 g of yeast extract, 10 g of polypeptone, 2 g of glucose, 7 g of disodium hydrogen phosphate, 2 g of potassium dihydrogen phosphate, 1.2 g of ammonium sulfate and 0.4 g of magnesium sulfate, per liter, in a 500-ml Erlenmeyer flask for 6 hrs. at 37° C with shaking. The resulting cells were collected by centrifugation (5,000 r.p.m. × 10 min.), washed three times with 0.1 M phosphate buffer (pH 7.0). Subsequently, the cells were subjected to sonication (20 KHz, 20 min.) and then centrifuged at 15,000 r.p.m. for 60 min. By using the supernatant of enzyme fluid, the resistance of each compound against β-lactamase was determined by the iodometric assay method. Each numeral shown in Table 7 is a relative activity value calculated by assuming as 100 the activity of the control Potassium Penicillin G.

Proteus morganii = experiment: MIC against clinical isolates; type: cell-based; details: clinical isolate, unit assumed
Proteus vulgaris = experiment: MIC against clinical isolates; type: cell-based; details: clinical isolate, unit assumed
Proteus rettgeri = experiment: MIC against clinical isolates; type: cell-based; details: clinical isolate, unit assumed
Proteus vulgaris 3027 = experiment: MIC against standard strain, plate method; type: cell-based; details: Proteus vulgaris 3027, standard strain; unit assumed
Outline: (§1)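 Plate-method MIC. Medium: heart infusion agar, pH 7.4. Inoculum: 10^4 cells per plate (10^6 cells/ml).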

[1] = tested on: Pseudomonas aeruginosa I.F.O.; experiment: MIC against standard strain, plate method; type: cell-based; details: unit assumed
Outline: as §1

Klebsiella pneumoniae [2] = experiment: MIC against standard strain, plate method; type: cell-based; details: unit assumed
Outline: as §1

[3] = tested on: Staphylococcus aureus 209p; experiment: MIC against standard strain, plate method; type: cell-based; details: unit assumed
Outline: as §1

Pseudomonas aeruginosa = experiment: MIC against clinical isolates; type: cell-based; details: unit assumed
Escherichia coli = experiment: MIC against clinical isolates; type: cell-based; details: unit assumed
Klebsiella pneumoniae [4] = experiment: MIC against clinical isolates; type: cell-based; details: unit assumed
Staphylococcus aureus = experiment: MIC against clinical isolates; type: cell-based; details: unit assumed

CC1(C)S[C@@H]2[C@H](NC(=O)C(c3ccccc3)S(=O)(=O)O)C(=O)N2[C@H]1C(=O)O (stereo partly shown) [Sodium Sulbenicillin, SodiumSulbenicillin, reference compound]
100 µg/mL: MIC (Pseudomonas aeruginosa; clinical isolate GN 1035) | MIC (Pseudomonas aeruginosa; clinical isolate GN 2565) | MIC (Pseudomonas aeruginosa; clinical isolate S-1) | MIC (Pseudomonas aeruginosa; clinical isolate S-2) | MIC (Pseudomonas aeruginosa; clinical isolate S-3) | MIC (Pseudomonas aeruginosa; clinical isolate S-4)
0.79 µg/mL: MIC (Proteus mirabilis) | MIC (Proteus vulgaris 3027)
50%: Relative activity (β-lactamase)
12.5 µg/mL: MIC (Escherichia coli; clinical isolate GN 3452) | MIC (Escherichia coli; clinical isolate GN 3481) | MIC (Escherichia coli; clinical isolate K-2)
> 200 µg/mL: MIC (Proteus rettgeri) | MIC (Klebsiella pneumoniae [2]) | MIC (Escherichia coli; clinical isolate GN 3465) | MIC (Escherichia coli; clinical isolate GN 3611) | MIC (Escherichia coli; clinical isolate K-3) | MIC (Klebsiella pneumoniae [4]; clinical isolate GN 917) | MIC (Klebsiella pneumoniae [4]; clinical isolate GN 3850) | MIC (Klebsiella pneumoniae [4]; clinical isolate GN 4081) | MIC (Klebsiella pneumoniae [4]; clinical isolate GN 4117) | MIC (Staphylococcus aureus; clinical isolate F-5)
< 0.4 µg/mL: MIC (Proteus morganii) | MIC (Proteus vulgaris)
50 µg/mL: MIC [1] | MIC (Pseudomonas aeruginosa; clinical isolate GN 82) | MIC (Pseudomonas aeruginosa; clinical isolate GN 163) | MIC (Pseudomonas aeruginosa; clinical isolate GN 376) | MIC (Pseudomonas aeruginosa; clinical isolate GN 383) | MIC (Pseudomonas aeruginosa; clinical isolate GN 1091) | MIC (Pseudomonas aeruginosa; clinical isolate GN (number not given; Table 5-3))
3.13 µg/mL: MIC [3] | MIC (Staphylococcus aureus; clinical isolate F-2) | MIC (Staphylococcus aureus; clinical isolate MS 8588) | MIC (Staphylococcus aureus; clinical isolate MS 8596) | MIC (Staphylococcus aureus; clinical isolate MS 8619) | MIC (Staphylococcus aureus; clinical isolate MS 8684) | MIC (Staphylococcus aureus; clinical isolate MS 8713)
25 µg/mL: MIC (Pseudomonas aeruginosa; clinical isolate GN 221) | MIC (Pseudomonas aeruginosa; clinical isolate GN 2987)
